Experimental data published in patent US12010996B2, “Tris-substituted biguanide compounds and their uses” (priority 2018, dated 2024).
In brackets after ≈: the same amount, converted by molar mass.

Key:
Assay in all cases: Antibacterial effectiveness testing, growth inhibition in BHI broth (absorbance 600 nm)
Conditions in all cases: 37° C., 24 h
[1] = tested on: A. baumanni-ATCC-19606; format: cell-based
Protocol: (§1) The antibacterial effectiveness testing was run against 7 strains of bacteria using the following protocol. […] Bacteria (either E. coli or P. aeruginosa or S. aureus or […] or K. pneumonia or A. baumanni or C. albicans) are added to all well except the control and incubated at 37° C. for 24 h. The absorbance was read at 600 nm. MIC90 was calculated as the concentration at which 90% growth inhibition is noticed. N=4 replicates for each compound and bacteria.

[2] = tested on: K. pneumonia, ATCC-18804; format: cell-based
Protocol: as §1

[3] = tested on: P. aeruginosa, ATCC-9027; format: cell-based
Protocol: as §1

[4] = tested on: C. albicans, ATCC1-0231; format: cell-based
Protocol: as §1, with “protocol. Protocol:” for “protocol.”

[5] = tested on: E. coli, ATCC-8739; format: cell-based
Protocol: as §1, with “protocol. Protocol:” for “protocol.”

[6] = tested on: S. marcenes, ATCC-21639; format: cell-based
Protocol: as §1, with “protocol. Protocol:” for “protocol.”

[7] = tested on: S. aeureus, ATCC 6538; format: cell-based, S. aureus
Protocol: as §1, with “protocol. Protocol:” for “protocol.”

[8] = * BHI not containing acetic acid/BSA, beginning 1000 μg/mL suspension
[9] = no asterisk (BHI containing acetic acid/BSA), beginning 1000 μg/mL suspension
[10] = no asterisk, beginning 1000 μg/mL in DMSO/Water

SMILES	MIC (A. baumanni-ATCC-19606) [1, 8] [µg/mL]	MIC (A. baumanni-ATCC-19606) [1, 9] [µg/mL]	MIC (A. baumanni-ATCC-19606) [1, 10] [µg/mL]	MIC (K. pneumonia, ATCC-18804) [2, 9] [µg/mL]	MIC (K. pneumonia, ATCC-18804) [2, 10] [µg/mL]	MIC90 (P. aeruginosa, ATCC-9027) [3, 8] [µg/mL]	MIC90 (P. aeruginosa, ATCC-9027) [3, 9] [µg/mL]	MIC90 (P. aeruginosa, ATCC-9027) [3, 10] [µg/mL]	MIC (C. albicans, ATCC1-0231) [4, 9] [µg/mL]	MIC (C. albicans, ATCC1-0231) [4, 10] [µg/mL]	MIC90 (E. coli, ATCC-8739) [5, 8] [µg/mL]	MIC90 (E. coli, ATCC-8739) [5, 9] [µg/mL]	MIC90 (E. coli, ATCC-8739) [5, 10] [µg/mL]	MIC (S. marcenes, ATCC-21639) [6, 8] [µg/mL]	MIC (S. marcenes, ATCC-21639) [6, 9] [µg/mL]	MIC (S. marcenes, ATCC-21639) [6, 10] [µg/mL]	MIC (S. aeureus, ATCC 6538) [7, 8] [µg/mL]	MIC (S. aeureus, ATCC 6538) [7, 9] [µg/mL]	MIC (S. aeureus, ATCC 6538) [7, 10] [µg/mL]	MIC (K. pneumonia, ATCC-18804) [2, 8] [µg/mL]
N=C(NCCN(CCNC(=N)NC(=N)Nc1ccc(Cl)cc1)CCNC(=N)NC(=N)Nc1ccc(Cl)cc1)NC(=N)Nc1ccc(Cl)cc1 [USD 18]	3.12 (≈ 4.27 µM)	6.25 (≈ 8.56 µM)	0.39 (≈ 0.534 µM)	12.5 (≈ 17.1 µM)	6.25 (≈ 8.56 µM)	6.25 (≈ 8.56 µM)	0.76 (≈ 1.04 µM)	0.76 (≈ 1.04 µM)	6.25 (≈ 8.56 µM)	3.12 (≈ 4.27 µM)	3.12 (≈ 4.27 µM)	3.15 (≈ 4.31 µM)	6.25 (≈ 8.56 µM)	3.12 (≈ 4.27 µM)	50 (≈ 68.5 µM)	12.5 (≈ 17.1 µM)	0.78 (≈ 1.07 µM)	0.76 (≈ 1.04 µM)	0.76 (≈ 1.04 µM)	–
N=C(NCCN(CCNC(=N)NC(=N)Nc1ccc(C(F)(F)F)cc1)CCNC(=N)NC(=N)Nc1ccc(C(F)(F)F)cc1)NC(=N)Nc1ccc(C(F)(F)F)cc1 [USD 19]	3.12 (≈ 3.76 µM)	1.5 (≈ 1.81 µM)	–	25 (≈ 30.1 µM)	–	12.5 (≈ 15 µM)	3.15 (≈ 3.79 µM)	–	6.25 (≈ 7.52 µM)	–	12.5 (≈ 15 µM)	315 (≈ 379 µM)	–	3.12 (≈ 3.76 µM)	100 (≈ 120 µM)	–	3.12 (≈ 3.76 µM)	1.5 (≈ 1.81 µM)	–	–
Cl.Cl.N=C(NCCCCCCNC(=N)NC(=N)Nc1ccc(Cl)cc1)NC(=N)Nc1ccc(Cl)cc1 [USD 20, chlorhexidine dihydrochloride, reference compound]	25	–	0.39	–	3.12	25	–	1.5	–	12.5	0.78	–	1.5	6.25	–	3.25	0.78	–	0.76	25
